# Reference: patent US12544370B2, “Methods for cancer therapy” (ASCENTAGE PHARMA (SUZHOU) CO., LTD., priority 2018, dated 2026)
# Tested on: TKI-resistant patients with chronic phase (CP) or accelerated phase (AP) CML
# Experiment: Phase I study, safety / treatment related adverse events (Example 1)
# Settings: Example 1
# Description: The eligible patients received treatments until disease progression or intolerable toxicities. The primary efficacy endpoint in the CML AP and CP patients, was complete hematological response (CHR) and major cytogenetic response (MCyR) respectively, MCyR includes partial cytogenetic response (PCyR) and complete cytogenetic response (CCyR). Blood samples were collected at various time points on Day 1-2 and Day 27-28 during cycle 1 for PK analyses.
# • 3 to 6 subjects in each dose group (traditional 3+3 dose increasing method) • Up to 15 subjects in the MTD dose group (safety and PK characteristics) • Dose extension studies: • Up to 60 subjects (CP/CML-AP) • Extended dose selection is based on initial safety and efficacy Study Endpoints Primary Endpoint
# [1] = treatment related AE, all patients
structure (smiles),measurement,setting,value
"Cc1ccc(C(=O)Nc2ccc(CN3CCN(C)CC3)c(C(F)(F)F)c2)cc1C#Cc1cnc2[nH]ncc2c1 [compound of formula (I-A), 3-(2-(1H-pyrazolo[3,4-b]pyridin-5-yl)ethynyl)-4-methyl-N-(4-((4-methylpiperazin-1-yl)methyl)-3-(trifluoromethyl)phenyl)-benzamide]","Lipase increased leading to dose interruption/reduction, percent of cohort",40 mg (n = 37),(2.7%)
same,Thrombocytopenia leading to dose interruption/reduction,40 mg (n = 37),11 n
same,"Thrombocytopenia leading to dose interruption/reduction, percent of cohort",40 mg (n = 37),(30%)
same,ALT increased leading to dose interruption/reduction,45 mg (n = 3),0 n (%)
same,AST increased leading to dose interruption/reduction,45 mg (n = 3),0 n (%)
same,Amylase increased leading to dose interruption/reduction,45 mg (n = 3),0 n (%)
same,Anemia leading to dose interruption/reduction,45 mg (n = 3),0 n (%)
same,Atrial fibrillation leading to dose interruption/reduction,45 mg (n = 3),0 n (%)
same,Cardiomyopathy leading to dose interruption/reduction,45 mg (n = 3),0 n (%)
same,GGT increased leading to dose interruption/reduction,45 mg (n = 3),0 n (%)
same,Hyperkalemia leading to dose interruption/reduction,45 mg (n = 3),0 n (%)
same,Hypertriglyceridemia leading to dose interruption/reduction,45 mg (n = 3),0 n (%)
same,Hypocalcemia leading to dose interruption/reduction,45 mg (n = 3),0 n (%)
same,Lacunar infarction leading to dose interruption/reduction,45 mg (n = 3),0 n (%)
same,Lipase increased leading to dose interruption/reduction,45 mg (n = 3),0 n (%)
same,Thrombocytopenia leading to dose interruption/reduction,45 mg (n = 3),2(67%) n (%)
same,ALT increased leading to dose interruption/reduction,50 mg (n = 24),1 n
same,"ALT increased leading to dose interruption/reduction, percent of cohort",50 mg (n = 24),(4.2%)
same,AST increased leading to dose interruption/reduction,50 mg (n = 24),1 n
same,"AST increased leading to dose interruption/reduction, percent of cohort",50 mg (n = 24),(4.2%)
same,Amylase increased leading to dose interruption/reduction,50 mg (n = 24),0 n (%)
same,Anemia leading to dose interruption/reduction,50 mg (n = 24),0 n (%)
same,Atrial fibrillation leading to dose interruption/reduction,50 mg (n = 24),0 n (%)
same,Cardiomyopathy leading to dose interruption/reduction,50 mg (n = 24),0 n (%)
same,GGT increased leading to dose interruption/reduction,50 mg (n = 24),0 n (%)
same,Hyperkalemia leading to dose interruption/reduction,50 mg (n = 24),0 n (%)
same,Hypertriglyceridemia leading to dose interruption/reduction,50 mg (n = 24),0 n (%)
same,Hypocalcemia leading to dose interruption/reduction,50 mg (n = 24),1 n
same,"Hypocalcemia leading to dose interruption/reduction, percent of cohort",50 mg (n = 24),(4.2%)
same,Lacunar infarction leading to dose interruption/reduction,50 mg (n = 24),1 n
same,"Lacunar infarction leading to dose interruption/reduction, percent of cohort",50 mg (n = 24),(4.2%)
same,Lipase increased leading to dose interruption/reduction,50 mg (n = 24),1 n
same,"Lipase increased leading to dose interruption/reduction, percent of cohort",50 mg (n = 24),(4.2%)
same,Thrombocytopenia leading to dose interruption/reduction,50 mg (n = 24),8 n
same,"Thrombocytopenia leading to dose interruption/reduction, percent of cohort",50 mg (n = 24),(33%)
same,ALT increased leading to dose interruption/reduction,60 mg (n = 3),0 n (%)
same,AST increased leading to dose interruption/reduction,60 mg (n = 3),0 n (%)
same,Amylase increased leading to dose interruption/reduction,60 mg (n = 3),0 n (%)
same,Anemia leading to dose interruption/reduction,60 mg (n = 3),0 n (%)
same,Atrial fibrillation leading to dose interruption/reduction,60 mg (n = 3),0 n (%)
same,Cardiomyopathy leading to dose interruption/reduction,60 mg (n = 3),1(33%) n (%)
same,GGT increased leading to dose interruption/reduction,60 mg (n = 3),0 n (%)
same,Hyperkalemia leading to dose interruption/reduction,60 mg (n = 3),0 n (%)
same,Hypertriglyceridemia leading to dose interruption/reduction,60 mg (n = 3),0 n (%)
same,Hypocalcemia leading to dose interruption/reduction,60 mg (n = 3),0 n (%)
same,Lacunar infarction leading to dose interruption/reduction,60 mg (n = 3),0 n (%)
same,Lipase increased leading to dose interruption/reduction,60 mg (n = 3),0 n (%)
same,Thrombocytopenia leading to dose interruption/reduction,60 mg (n = 3),2(67%) n (%)
same,patients with dose-limiting toxicity (DLT),60 mg cohort,Two out of 3
same,patient withdrawal from the study because of TRAEs,70 patients,no patient withdrawal
same,maximum toxic dosage (MTD),QOD,50 mg
same,tolerability,median follow-up of 4.1 (1.0-21.2) cycles,well-tolerated in all dose cohorts other than the 60 mg cohort
same,"Alanine aminotransferase increased, Any grade",[1],29 (29%) n (%)
same,"Alanine aminotransferase increased, Grade 3-4",[1],2 (2.0%) n (%)
same,"Alanine aminotransferase increased, SAE",[1],0 n (%)
same,"Anaemia, Any grade",[1],10 (10%) n (%)
same,"Anaemia, Grade 3-4",[1],9 (9.0%) n (%)
same,"Anaemia, SAE",[1],2 (2.0%) n (%)
same,"Aspartate aminotransferase inceased, Any grade",[1],31 (31%) n (%)
same,"Aspartate aminotransferase inceased, Grade 3-4",[1],2 (2.0%) n (%)
same,"Aspartate aminotransferase inceased, SAE",[1],0 n (%)
same,"Blood bilirubin increased, Any grade",[1],28 (28%) n (%)
same,"Blood bilirubin increased, Grade 3-4",[1],1 (1.0%) n (%)
same,"Blood bilirubin increased, SAE",[1],0 n (%)
same,"Blood creatine phosphokinase increased, Any grade",[1],19 (19%) n (%)
same,"Blood creatine phosphokinase increased, Grade 3-4",[1],1 (1.0%) n (%)
same,"Blood creatine phosphokinase increased, SAE",[1],0 n (%)
same,"Hypertriglyceridaemia, Any grade",[1],51 (51%) n (%)
same,"Hypertriglyceridaemia, Grade 3-4",[1],4 (4.0%) n (%)
same,"Hypertriglyceridaemia, SAE",[1],0 n (%)
same,"Hypocalcaemia, Any grade",[1],31 (31%) n (%)
same,"Hypocalcaemia, Grade 3-4",[1],0 n (%)
same,"Hypocalcaemia, SAE",[1],0 n (%)
same,"Leukopenia, Any grade",[1],17 (17%) n (%)
same,"Leukopenia, Grade 3-4",[1],15 (15%) n (%)
same,"Neutropenia, Any grade",[1],2 (2.0%) n (%)
same,"Neutropenia, Grade 3-4",[1],0 n (%)
same,"Neutropenia, SAE",[1],0 n (%)
same,"Proteinuria, Any grade",[1],11 (11%) n (%)
same,"Proteinuria, Grade 3-4",[1],1 (1.0%) n (%)
same,"Proteinuria, SAE",[1],0 n (%)
same,"Skin hyperpigmentation, Any grade",[1],35 (35%) n (%)
same,"Skin hyperpigmentation, Grade 3-4",[1],0 n (%)
same,"Skin hyperpigmentation, SAE",[1],0 n (%)
same,"Thrombocytopenia, Any grade",[1],46 (46%) n (%)
same,"Thrombocytopenia, Grade 3-4",[1],45 (45%) n (%)
same,"Thrombocytopenia, SAE",[1],5 (5.0%) n (%)
same,"leukocytosis, Any grade",[1],9 (9.0%) n (%)
same,"leukocytosis, Grade 3-4",[1],8 (8.0%) n (%)
same,"leukocytosis, SAE",[1],0 n (%)
same,"leukopenia, SAE",[1],0 n (%)
